Source: patent publication US5192784A, “Etanidazole injectable solution” (Du Pont Merck Pharmaceutical Company, priority 1992, dated 1993)
In brackets after ≈: the same amount, converted by molar mass. Read-outs that look alike come from different tables or passages of the source.

Assays:
Format in all cases: physicochemical
[1] = Effect of ionic strength on rate of decomposition in 0.1M acetate, pH 5.0, 80° C.
Protocol: (§1) The k values shown in Tables 1-5 and FIG. 1 should be multipled by a factor of 2.303 to provide the actual k value.
(§2) The chemical stability of etanidazole was evaluated in solutions of varying composition stored at 80° C. Etanidazole was placed into suitable containers and sufficient buffer was added to result in a 1 mg/ml solution. A constant ionic strength of 0.3 was maintained with potassium chloride. All solutions were prepared in triplicate. The solution was divided into 2 ml sealed glass vials and was placed into cardboard storage boxes to protect the compound from light. At appropriate intervals, samples were removed from the stability chamber and cooled to room temperature. An aliquot of the sample was diluted with mobile phase containing internal standard prior to HPLC analysis. For those pH conditions where degradation was rapid, the sample aliquot was immediately quenched to neutral pH and room temperature.
(§3) Data were analyzed using methods as described by Martin et al. in "Physical Pharmacy", 3rd ed, pp 352-395 (1983).
The impact of the ionic strength of the buffer system on the rate of decomposition was examined in 0.1M acetate, pH 5.0, at 80° C. Ionic strengths of 0.15, 0.30 and 0.60 were employed.

[2] = Effect of initial etanidazole concentration on rate of decomposition in 0.05M citrate pH 5.5, 80° C.
Protocol: as §1, §2, §3
The effect of initial etanidazole concentration on the rate of decomposition was examined in 0.05M citrate pH 5.5, at 80° C. Initial concentrations of 1, 25 and 50 mg/ml were employed.

[3] = Effects of additives on apparent solubility / crystallization of etanidazole solutions; settings: for time to formation of crystalline material: excess or 150 mg/ml
Protocol: The effects of additives on the apparent solubility of etanidazole were evaluated. […] Possible effects of additives are to inhibit the crystallization of etanidazole hydrate and to solubilize etanidazole hydrate.
Solutions were mixed by rotating end-to-end for 72 hours at room temperature. […] These were placed in 4° C. storage. […] In the case of solutions containing 1% ethanolamine or 0.1% diethanolamine as additives and excess or 150 mg/ml etanidazole, crystalline material had found within 24 hours at room temperature, but the 50 mg/ml and 100 mg/ml solutions remained clear at room temperature for 72 hours. These samples were placed at 4° C. […] After 2 months at 4° C., 1 of the 3 vials remained free of crystals. The 50 mg/ml etanidazole solution with 0.1% diethanolamine remained clear for at least 2 months at 4° C.

[4] = Equilibrium solubility of etanidazole in 0.05M acetate or citrate buffers at pH 4.0 with additives; settings: for solubility: mean ± SD, read-out: Solubility at 4° C.
Protocol: Equilibrium solubility of etanidazole in 0.05M acetate or citrate buffers at pH 4.0 and the effects of additives were determined.

O=C(Cn1ccnc1[N+](=O)[O-])NCCO [Etanidazole]
effect of ionic strength on degradation rate ([1]; 0.15, 0.30 and 0.60, 0.1M acetate pH 5.0, 80° C.): negligible effect on the degradation rate | kobs, observed first-order rate constant ([1]; ionic strength 0.15, 0.1M acetate pH 5.0, 80° C.): 0.0059 ± 0.000108 day⁻¹ | kobs, observed first-order rate constant ([1]; ionic strength 0.30, 0.1M acetate pH 5.0, 80° C.): 0.00516 ± 0.000104 day⁻¹ | kobs, observed first-order rate constant ([1]; ionic strength 0.60, 0.1M acetate pH 5.0, 80° C.): 0.00518 ± 0.000306 day⁻¹ | effect of initial concentration on degradation ([2]; 1, 25 and 50 mg/ml): not concentration dependent in this range | kobs, observed first-order rate constant ([2]; initial concentration 1 mg/ml): 0.00957 ± 7.37e-05 day⁻¹ | kobs, observed first-order rate constant ([2]; initial concentration 25 mg/ml): 0.0127 ± 0.000586 day⁻¹ | kobs, observed first-order rate constant ([2]; initial concentration 50 mg/ml): 0.0127 ± 0.000153 day⁻¹ | time solution remained clear ([3]; 0.1% diethanolamine, 50 mg/ml, 4° C.): at least 2 months | time solution remained clear ([3]; 0.1% diethanolamine, 50 mg/ml, room temperature): 72 h | vials that remained free of crystals ([3]; 0.1% diethanolamine, 100 mg/ml, 4° C., after 2 months): 1 of the 3 | vials showing crystallization ([3]; 0.1% diethanolamine, 100 mg/ml, 4° C., within 24 hours): 1 of 3 | time solution remained clear ([3]; 0.1% diethanolamine, 100 mg/ml, room temperature): 72 h | time to formation of crystalline material ([3]; 0.1% diethanolamine, room temperature): ≤ 24 h | time solution remained clear ([3]; 1% ethanolamine, 50 mg/ml, 4° C.): at least 1 month | time solution remained clear ([3]; 1% ethanolamine, 50 mg/ml, room temperature): 72 h | time to crystallization ([3]; 1% ethanolamine, 100 mg/ml, 4° C.): ≤ 24 h | time solution remained clear ([3]; 1% ethanolamine, 100 mg/ml, room temperature): 72 h | time to formation of crystalline material ([3]; 1% ethanolamine, room temperature): ≤ 24 h | solid form of excess solid ([3]; 1% imidazole and excess etanidazole, 72 hours, room temperature): appeared to have been converted to etanidazole hydrate | time solution remained clear ([3]; 1% imidazole, 50 mg/ml, 4° C. (up to)): up to 1 month | time solution remained clear ([3]; 1% imidazole, 100 mg/ml, 4° C. (up to)): up to 1 month | time to crystal formation ([3]; 1% imidazole, 150 mg/ml, 4° C.): ≤ 2 h | appearance of solution ([3]; 1% imidazole, up to 150 mg/ml etanidazole, room temperature, 72 hours): remained clear and free of particulates | effect of additives on etanidazole solutions ([3]; imidazole, ethanolamine, diethanolamine, room temperature or 4° C.): these additives stabilize etanidazole solutions, inhibiting crystal formation | solubility ([4]; 0.05m acetate buffer, aqueous buffer, acetate 0.05M pH 4.0, no additive): 83.4 ± 26.3 mg/mL (≈ 389 mM) | solubility ([4]; 0.05m acetate buffer, acetate 0.05M pH 4.0, 0.065% Imidazole): 64.8 ± 32.1 mg/mL (≈ 303 mM) | solubility ([4]; 0.05m acetate buffer, acetate 0.05M pH 4.0, 0.13% Ethylenediamine): 54.8 ± 30.9 mg/mL (≈ 256 mM) | solubility ([4]; 0.05m citrate buffer, aqueous buffer, citrate 0.05M pH 4.0, no additive): 36.6 ± 6.4 mg/mL (≈ 171 mM) | solubility ([4]; 0.05m citrate buffer, citrate 0.05M pH 4.0, 0.065% Imidazole): 95.4 ± 3.7 mg/mL (≈ 445 mM) | solubility ([4]; 0.05m citrate buffer, citrate 0.05M pH 4.0, 0.13% Ethylenediamine): 61.5 ± 33.9 mg/mL (≈ 287 mM) | effect of imidazole on etanidazole solubility ([4]; citrate buffer, pH 4.0, 4° C.): Imidazole increased etanidazole solubility in citrate buffer
